PubChem BioAssay (NCI)
Several values for one entry are separate records, joined by “and”; a condition that tells them apart may be missing. Equal values may be shown once.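 In this assay, cells in 96-well plates receive the compound at five concentrations for 48 hours. Endpoints are linearly interpolated between the surrounding concentrations. GI50 marks 50% less growth. TGI is the concentration that stops growth completely.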

Legend:
Test in all cases: NCI-60 cell line screen, 48 h
NCI-H522 lung = system: NCI-H522 lung
HCC-2998 colon = system: HCC-2998 colon
A549 NSCLC = system: A549 NSCLC
OVCAR-4 ovarian = system: OVCAR-4 ovarian
SK-MEL-28 melanoma = system: SK-MEL-28 melanoma
HCT-116 colon = system: HCT-116 colon
NCI-H226 lung = system: NCI-H226 lung
KM20L2 colon = system: KM20L2 colon
SNB-78 CNS = system: SNB-78 CNS
DLD-1 colon = system: DLD-1 colon

SMILES	TGI (NCI-H522 lung)	TGI (HCC-2998 colon)	TGI (A549 NSCLC) [µM]	TGI (OVCAR-4 ovarian)	TGI (SK-MEL-28 melanoma)	TGI (HCT-116 colon)	TGI (NCI-H226 lung)	further results
Brc1ccc(-c2[nH]c3ccccc3c2/C=N\Nc2ccc(-c3nc4ccccc4[nH]3)cc2)cc1	< 0.01 µM	< 0.01 µM	> 100	> 100 µM	–	–	–	–
c1ccc(CSC(SCc2ccccc2)c2cccc3ccccc23)cc1	> 10 µM	> 10 µM	> 10	> 10 µM	> 10 µM	> 10 µM	> 10 µM	–
COc1cc(/C=N/NC(=O)c2c(Cl)c(Cl)c(Cl)c(Cl)c2-c2nc3ccc(C(=O)c4ccccc4)cc3[nH]2)ccc1O	> 100 µM	–	> 100	> 100 µM	> 100 µM	> 100 µM	> 100 µM	–
CCOC(=O)C1=C(C(=O)OCC)SC2(S1)C(C(=O)OCC)=C(C(=O)OCC)Sc1c2ssc1=O	4.46 µM	5.89 µM	5.38	2.68 µM	3.93 µM	2.3 µM	42.2 µM	–
Cc1csc2nc(-c3cccc([N+](=O)[O-])c3)c(/C=N/N=C(N)N)n12	3.26 µM	0.861 µM	3.34	3.19 µM	3.15 µM	3.3 µM	–	–
CCCCCCCCCCCCc1ccc(S(=O)(=O)O)cc1.[Cu+2]	–	> 100 µM	> 100	> 100 µM	> 100 µM	> 100 µM	–	–
O=C(CSCC(=O)N/N=C\c1ccc(F)cc1F)N/N=C\c1ccc(F)cc1F	> 100 µM	> 100 µM	> 100	> 100 µM	> 100 µM	> 100 µM	> 100 µM	–
COC(=O)c1c(O)ccc2c1c1c(n2CCc2ccc(OC)c(OC)c2)C(=O)c2ccccc2C1=O	14 µM	15.7 µM	47.2	35.6 µM	24.8 µM	26.7 µM	50.3 µM	–
COc1ccccc1C#C/C=C\C#Cc1ccccc1C#N	25.7 µM	47.4 µM	> 100	> 100 µM	> 100 µM	27.7 µM	–	–
Cc1ncc(C(=O)Nc2ccc(CN3CCN(C)CC3)c(C(F)(F)F)c2)cc1C#Cc1cnc(N)c2ccc(C#N)cc12	> 100 µM	24.7 µM	–	–	–	–	0.593 µM	GI50 (NCI-H522 lung): 0.0788 µM; GI50 (HCC-2998 colon): 2.29 µM; GI50 (NCI-H226 lung): 0.0345 µM
N#CC1(CCCI)CCCC1	28.7 µM	> 100 µM	> 100	–	57.3 µM	> 100 µM	–	TGI (KM20L2 colon): > 100 µM; TGI (SNB-78 CNS): 38.3 µM; TGI (DLD-1 colon): > 100 µM
Cc1cc(C)c2c(=O)n(CC(O)CN(Cc3ccccc3)CC(O)Cn3sc4nc(C)cc(C)c4c3=O)sc2n1 (configuration not stated)	22 µM	35.7 µM	40.7	32.4 µM	74.1 µM	31.5 µM	33.5 µM	–
Cc1[nH]c(C(=O)Nc2ccc(C(=O)NCCN)cc2OC(C)C)c(Cl)c1Cl	–	3.48 µM	–	–	3.21 µM	–	–	GI50 (SK-MEL-28 melanoma): 1.76 µM; GI50 (HCC-2998 colon): 1.82 µM
CC(=O)OC(C(=O)O)C(OC(C)=O)C(OC(C)=O)C(OC(C)=O)C(=O)O (configuration not stated)	> 100 µM	–	> 100	–	> 100 µM	> 100 µM	> 100 µM	–
O=S(=O)(c1ccccc1)C1CC(c2nc3ccccc3[nH]2)=NO1 (configuration not stated)	> 100 µM	> 100 µM	> 100	> 100 µM	> 100 µM	> 100 µM	> 100 µM	–
C[C@]12CC[C@H]3[C@@H](CC=C4C[C@@H](O)CC[C@@]43C)[C@@H]1C/C(=C\c1ccncc1)[C@@H]2O	57.7 µM	> 100 µM	61.3	39.5 µM	51.3 µM	51.4 µM	57.2 µM	–
N#Cc1c(-c2ccc([N+](=O)[O-])cc2)c2c([nH]c1=O)-c1ccccc1CCC2	> 100 µM	71.1 µM	> 100	> 100 µM	> 100 µM	> 100 µM	96.2 µM	–
c1ccc(/C(=N\Nc2nc3ccccc3[nH]2)c2ccccn2)cc1	0.69 µM	4.1 µM	22.1	4.99 µM	12.8 µM	4.52 µM	2.09 µM	–
O=C1Nc2cccc(Cl)c2/C1=C\c1cccnc1	21.6 µM	7.86 µM	33.6	31.7 µM	> 100 µM	11.3 µM	–	–
O=C1OC(c2ccc(O)cc2)(c2ccc(O)cc2)c2ccc(Cl)c3cccc1c23 (tested in a mixture with another compound)	–	–	> 75	0.325 µM	21.1 µM	18.9 µM	34 µM	–
O=C(O)c1cc2ccccc2c(N=Nc2ccc(S(=O)(=O)Nc3ccccn3)cc2)c1O	> 100 µM	> 100 µM	> 100	> 100 µM	> 100 µM	> 100 µM	> 100 µM	–
C[n+]1c2ccccc2c(N=[N+]=[N-])c2ccccc21	> 10 µM	> 10 µM	> 10	> 10 µM	> 10 µM	> 10 µM	> 10 µM	–
CC[C@@]1(O)CC(OC2CC(N3CCOCC3)C(O)C(C)O2)c2c(O)c3c(c(O)c2[C@H]1O)C(=O)c1cccc(O)c1C3=O (some centres not stated)	0.906 µM and 0.407 µM	0.904 µM and 0.916 µM	0.6	1.55 µM and 2.88 µM	1.8 µM and 1.94 µM	4.27 µM and 3.5 µM	0.597 µM and 0.102 µM	GI50 (KM20L2 colon): 0.102 µM; TGI (KM20L2 colon): 3.84 µM and 1.86 µM; GI50 (SNB-78 CNS): 0.64 µM; TGI (SNB-78 CNS): 2.83 µM and 24.3 µM; GI50 (NCI-H522 lung): 0.055 µM; GI50 (HCT-116 colon): 0.0149 µM; GI50 (HCC-2998 colon): 0.13 µM; GI50 (DLD-1 colon): 0.0324 µM; TGI (DLD-1 colon): 2.78 µM and 3.2 µM; GI50 (A549 NSCLC): 0.000605 µM; GI50 (NCI-H226 lung): 0.0184 µM; GI50 (OVCAR-4 ovarian): 0.199 µM
C=C(CN(C)C)C(=O)c1ccccc1OC	6.01 µM	51.1 µM	> 100	45.9 µM	38.2 µM	30.9 µM	62.7 µM	TGI (KM20L2 colon): 50.8 µM; TGI (SNB-78 CNS): 62.8 µM; TGI (DLD-1 colon): 14.2 µM
